# Laboratory results from patent US10010581B2, “Syndecan peptides and polypeptides and uses thereof” (Wisconsin Alumni Research Foundation, priority 2012, dated 2018).
# Where no end group is shown, it is not given here.
# What was measured:
# Format in all cases: cell-based, human
# [1] = tested on: HaCat keratinocytes or MCF10A mammary epithelial cells; test: competition of LPA-induced haptotactic migration by GST fusion proteins or synthetic peptides (FIG. 10 summary); settings: 0.1 to 30 μM, 3 μM LPA
# Procedure: FIGS. 10A-C. Schematic summary of experiments using either recombinant GST fusion proteins or synthetic peptides to disrupt Sdc1-dependent coupling of HER2 to α6β4 integrin necessary for LPA-induced haptotactic migration. GST-fusion proteins or synthetic peptides were added at concentrations ranging from 0.1 to 30 μM to the culture medium of human HaCat keratinocytes or MCF10A mammary epithelial cells in the presence or absence of 3 μM LPA. The ability of the constructs to inhibit the migration of the cells to close a scratch wound in confluent monolayers was determined and expressed as the concentration of inhibitor necessary to cause 50% inhibition of cell migration. (FIG. 10A) Competition using recombinant GST-fusion proteins. GST-Sdc1 fusion proteins bearing truncations or mutations were assessed for their competitive activity. […] (FIG. 10B) Competition with synthetic peptides. Peptides were purchased from commercial sources for testing as a putative synstatin inhibitory peptide (SSTNHER2). […] (FIG. 10C) Schematic representation of the active site in Sdc1. The active site is shown as a juxtamembrane site in the ectodomain of Sdc1. TM is the transmembrane domain and CYTO is the cytoplasmic domain. The sequence of a peptide derived from this site (SSTNHER2) is shown along with its homology across other mammalian Sdc1 species. The human STTNHER2 sequence is SEQ ID NO:23; the homology for STTNHER2 across mammals is SEQ ID NO:24.
# (§1) HaCat or MCF10A cells were grown to confluence on 48 well-plates were starved for 6 hr by serum deprivation followed by introduction of a scratch wound in the monolayer using 200 μl pipette tip. Cells were cultured an additional 18 hr in DMEM containing mAb 3E1 (10 μg/ml) and goat anti-mouse IgG (50 μg/ml), EGF (10 ng/ml) or HGF (20 ng/ml) to cause cell migration in the presence or absence of inhibitors. Images were acquired using a PlanApo 20 (0.75 numerical aperture) objective and a Photometrics CoolSnap ES camera on a Nikon Eclipse TE2000U microscopy system and wound closure quantified.
# HaCat keratinocytes = test: scratch wound haptotaxis induced by LPA and clustering of α6β4 integrin; settings: LPA + α6β4 clustered with mAb 3E1 and secondary antibody, AG825 10 μM, Iressa 1 μM
# Text: FIG. 6A-D. Sdc1 is required for HER2/α6β4-dependent HaCat keratinocyte migration. (FIG. 6A) HaCat keratinocytes deposit laminin 332 (LN332) and migrate upon this using α3β1 and α6β4 integrins to close a scratch wound in the monolayer when stimulated to undergo chemotaxis in response to EGF. Alternatively, migration is induced by clustering the integrin (using mAb 3E1 against the integrin+a secondary antibody to cluster the first antibody and thus the entire complex) in the presence of LPA. This mimics the clustering that occurs when the cells engage LN332 and is referred to as haptotaxis. […] (FIG. 6B) Haptotaxis, stimulated by LPA and clustering of α6β4 integrin as described in FIG. 6A, is blocked by antibody directed against the α3β1 integrin or by BM165 which targets the binding site for α3β1 in LN332. […] (FIG. 6C) The potential roles of Sdc1 or Sdc4 in haptotaxis is tested by silencing their expression, together with attempting to rescue with either wild-type mouse Sdc1 or Sdc4, or mouse mutants unable to engage the β4 cytoplasmic domain (mSdc1ΔC2 or mSdc4ΔC2). Haptotaxis is blocked by silencing endogenous Sdc1, and this cannot be rescued by Sdc1ΔC2 that fails to engage the α6β4 integrin. Silencing Sdc4 also disrupts migration, but this traces to its role in activity of the α3β1 integrin and not a role in engaging the α6β4 integrin, as it can be rescued by mSdc4ΔC2 that fails to associate with the α6β4 integrin. (FIG. 6D) Immunoprecipitation of either native mSdc4 or mSdc4[…]C2 confirms that the mSdc4ΔC2 mutant no longer associates with the α6β4 integrin, but does with the α3β1 integrin. […]
# HaCat or MCF10A cells were grown to confluence on 48 well-plates were starved for 6 hr by serum deprivation followed by introduction of a scratch wound in the monolayer using 200 μl pipette tip. […] Images were acquired using a PlanApo 20 (0.75 numerical aperture) objective and a Photometrics CoolSnap ES camera on a Nikon Eclipse TE2000U microscopy system and wound closure quantified. […]
# [2] = tested on: MCF10A mammary epithelial cells; test: scratch wound haptotaxis induced by clustering the α6β4 integrin; settings: α6β4 integrin clustered
# Procedure: FIG. 9. Sdc1 ectodomain fragments and β4 dominant-negative mutant specific for Sdc1/α6β4/HER2 block MCF10A mammary epithelial cell migration. Haptotaxis of MCF10A human mammary epithelial cells induced by clustering the α6β4 integrin in a scratch wound assay is used to test the efficacy of inhibitors that target the Sdc1 mechanism. Cells are incubated either with entire recombinant syndecan ectodomains (Sdc1 ectodomain (S1ED) or Sdc4 ectodomain (S4ED) as a control), or an active fragment of mouse S1ED (S1ED^200-252) containing the inhibitory site.
# as §1
# The inventor used this assay to further truncate the S1ED recombinant proteins in order to find the smallest peptide that retains full inhibitory activity (e.g., SSTNHER2). The inventor tested mouse and human S1ED and find that they compete equally. […]
# A431 cells = test: A431 cell attachment and spreading on LN332; settings: 2 hr, mAb13 30 μg/ml, heparinase III 0.4 CU/ml, Sdc1 siRNA 100 nM
# Procedure: FIGS. 2A-E. Requirement of syndecan-1 for A431 cell spreading on LN332. A431 […] cells plated on slides coated with 10 μg/ml LN332 (FIG. 2A) without treatment; (FIG. 2B) with blocking antibody 3E1 to α6β4; (FIG. 2C) prior treatment with heparinase III; or (FIG. 2D) prior treatment with siRNA specific for human Sdc1. (FIG. 2E) Quantification of spread cells plated on LN332 and treated with blocking antibody to β1 integrin (mAb13 30 μg/ml) or control IgG (20 μg/ml), 3E1 blocking antibody (20 ug/ml) to β4 integrin, heparinase III (0.4 CU/ml) or human Sdc1 siRNA (100 nM). Data represent triplicate experiments +/−S.D. (Wang et al., 2010).
# Nitrocellulose-coated 10-well glass slides (Erie Scientific, Portsmouth, N.H.) were prepared as described by Beauvais and. Rapraeger (2010). Wells of slide were coated at 37° C. for 2 h with mAb 3E1 (3 μg/ml), diluted in phosphate-buffered saline (CMF-PBS: 135 mM NaCl, 2.7 mM KCl, 10.2 mM Na2HPO47H2O, and 1.75 mM KH2PO4, pH 7.4), and blocked with serum-free Hepes-buffered DMEM (pH 7.4) containing 0.1% heat-denatured bovine serum albumin (plating medium). Cells were lifted with trypsin (0.25% w/v), washed with DMEM, and regenerated in suspension for 1 h at 37° C. in DMEM containing 10% fetal bovine serum. Cells were then plated in wells (50 μl/well) in plating medium at 10^5 cells/ml. […]
Molecule,competitive (inhibitory) activity on haptotactic migration [1],haptotaxis (migration to close a scratch wound) (HaCat keratinocytes),other results
"210-236: truncated synthetic peptide, amino acids 210-236 of human Sdc1 (DFTFETSGENTAVVAVEPDRRNQSPVD; UniProt P18827 210-236, looked up, fragment)",loss of activity,,
"214-240: truncated synthetic peptide, amino acids 214-240 of human Sdc1 (ETSGENTAVVAVEPDRRNQSPVDQGAT; UniProt P18827 214-240, looked up, fragment)",loss of activity,,
COc1cc(/C=C(\C#N)C(N)=O)cc(CSc2nc3ccccc3s2)c1O [AG825],,blocks migration,
COc1cc2ncnc(Nc3ccc(F)c(Cl)c3)c2cc1OCCCN1CCOCC1 [Iressa],,without effect,
"S1ED^200-252: active fragment of mouse S1ED containing the inhibitory site, recombinant fusion protein (QLPAGEGSGEQDFTFETSGENTAVAAVEPGLRNQPPVDEGATGASQSLLDRKE; also: recombinant fusion protein, partner not given here; UniProt P18828 200-252, looked up, fragment)",,,haptotaxis (migration to close a scratch wound) [2]: competes for haptotaxis
"heparinase: enzyme treatment that blocks the ability of Sdc1 to bind LN332 (protein, UniProt Q59289 25-659, looked up) Heparin-sulfate lyase: QSSSITRKDFDHINLEYSGLEKVNKAVAAGNYDDAAKALLAYYREKSKAREPDFSNAEKPADIRQPIDKVTREMADKALVHQFQPHKGYGYFDYGKDINWQMWPVKDNEVRWQLHRVKWWQAMALVYHATGDEKYAREWVYQYSDWARKNPLGLSQDNDKFVWRPLEVSDRVQSLPPTFSLFVNSPAFTPAFLMEFLNSYHQQADYLSTHYAEQGNHRLFEAQRNLFAGVSFPEFKDSPRWRQTGISVLNTEIKKQVYADGMQFELSPIYHVAAIDIFLKAYGSAKRVNLEKEFPQSYVQTVENMIMALISISLPDYNTPMFGDSWITDKNFRMAQFASWARVFPANQAIKYFATDGKQGKAPNFLSKALSNAGFYTFRSGWDKNATVMVLKASPPGEFHAQPDNGTFELFIKGRNFTPDAGVFVYSGDEAIMKLRNWYRQTRIHSTLTLDNQNMVITKARQNKWETGNNLDVLTYTNPSYPNLDHQRSVLFINKKYFLVIDRAIGEATGNLGVHWQLKEDSNPVFDKTKNRVYTTYRDGNNLMIQSLNADRTSLNEEEGKVSYVYNKELKRPAFVFEKPKKNAGTQNFVSIVYPYDGQKAPEISIRENKGNDFEKGKLNLTLTINGKQQLVLVP",,,cell spreading on LN332 (A431 cells): disrupted
